Data from ChEMBL document CHEMBL4270590, “Azulene-based compounds for targeting orexin receptors” (Eur J Med Chem, 2018).
Calls of active or inactive are those of the source. No cut-off for these calls is given here.

Experiments:
[1] = target: T1, Orexin/Hypocretin receptor type 1 (Homo sapiens) (UniProt O43613); experiment: Displacement of [125I]-orexin-A from human OX1 receptor expressed in CHOK1 cells at 10 uM incubated for 10 mins and measured after 90 mins by liquid scintillation counting method relative to control; assay type: cell-based
T1 sequence (whole entry): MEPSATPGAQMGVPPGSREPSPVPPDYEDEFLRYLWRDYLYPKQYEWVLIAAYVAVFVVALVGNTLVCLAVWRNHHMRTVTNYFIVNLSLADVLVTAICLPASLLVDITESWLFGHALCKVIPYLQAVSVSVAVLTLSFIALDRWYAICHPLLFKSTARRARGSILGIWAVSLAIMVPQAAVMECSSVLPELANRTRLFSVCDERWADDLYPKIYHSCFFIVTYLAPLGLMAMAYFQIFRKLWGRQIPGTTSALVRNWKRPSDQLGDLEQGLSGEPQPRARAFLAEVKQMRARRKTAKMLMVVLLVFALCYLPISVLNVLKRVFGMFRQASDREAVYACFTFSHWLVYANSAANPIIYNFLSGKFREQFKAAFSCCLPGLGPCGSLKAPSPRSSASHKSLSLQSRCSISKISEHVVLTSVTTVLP

[2] = target: T2, Orexin/Hypocretin receptor type 1 (Homo sapiens, UniProt O43613); experiment: Antagonist activity at human OX1 receptor expressed in CHOK1 cells assessed as inhibition of orexin-A-induced calcium accumulation preincubated for 30 mins followed by orexin-A addition measured for 150 secs by calcium-4 dye based FLIPR assay; assay type: functional, cell-based; conditions: read-out: Ki(app)
T2 sequence (O43613 whole entry): T1 sequence (whole entry)

[3] = target: T3, Orexin receptor type 2 (Homo sapiens) (UniProt O43614); experiment: Displacement of [125I]-orexin-A from human OX2 receptor expressed in CHOK1 cells at 10 uM incubated for 10 mins and measured after 90 mins by liquid scintillation counting method relative to control; assay type: cell-based
T3 sequence (whole entry): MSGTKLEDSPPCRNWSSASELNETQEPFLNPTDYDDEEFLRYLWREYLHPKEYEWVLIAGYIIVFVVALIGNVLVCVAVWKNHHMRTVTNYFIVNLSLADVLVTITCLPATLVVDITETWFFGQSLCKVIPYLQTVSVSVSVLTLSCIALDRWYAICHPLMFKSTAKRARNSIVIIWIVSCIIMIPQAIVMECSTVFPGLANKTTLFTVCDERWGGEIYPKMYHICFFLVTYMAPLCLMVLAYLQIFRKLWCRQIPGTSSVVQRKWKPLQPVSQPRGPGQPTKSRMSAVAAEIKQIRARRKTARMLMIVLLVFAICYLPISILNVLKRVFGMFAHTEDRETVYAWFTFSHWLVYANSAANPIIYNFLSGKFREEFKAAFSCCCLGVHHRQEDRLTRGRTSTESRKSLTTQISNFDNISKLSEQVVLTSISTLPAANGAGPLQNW

Orexin receptor type 2 = target: T4, Orexin receptor type 2 (Homo sapiens, UniProt O43614); experiment: Antagonist activity at human OX2 receptor expressed in CHOK1 cells assessed as inhibition of orexin-A-induced calcium accumulation preincubated for 30 mins followed by orexin-A addition measured for 150 secs by calcium-4 dye based FLIPR assay; assay type: functional, cell-based; conditions: read-out: Ki(app)
T4 sequence (O43614 whole entry): T3 sequence (whole entry)

[4] = target: T1, Orexin/Hypocretin receptor type 1 (Homo sapiens); experiment: Agonist activity at human OX1 receptor expressed in CHOK1 cells assessed as increase in calcium accumulation at 10 uM incubated for 30 mins measured for 150 secs by calcium-4 dye based FLIPR assay relative to orexin-A; assay type: functional, cell-based
[5] = target: T3, Orexin receptor type 2 (Homo sapiens); experiment: Agonist activity at human OX2 receptor expressed in CHOK1 cells assessed as increase in calcium accumulation at 10 uM incubated for 30 mins measured for 150 secs by calcium-4 dye based FLIPR assay relative to orexin-A; assay type: functional, cell-based
[6] = Colloidal aggregating behavior of the compound at 18 to 30 uM by nephelometric method; assay type: physicochemical
[7] = target: T1, Orexin/Hypocretin receptor type 1 (Homo sapiens); experiment: Allosteric agonist activity at human OX1 receptor expressed in CHOK1 cells assessed as potentiation of orexin-A induced calcium accumulation at 5 uM preincubated for 30 mins followed by orexin-A addition and measured for 150 secs by calcium-4 dye based FLIPR assay relative to control; assay type: functional, cell-based
[8] = target: T1, Orexin/Hypocretin receptor type 1 (Homo sapiens); experiment: Allosteric agonist activity at human OX1 receptor expressed in CHOK1 cells assessed as potentiation of orexin-A induced calcium accumulation at 10 uM preincubated for 30 mins followed by orexin-A addition and measured for 150 secs by calcium-4 dye based FLIPR assay relative to control; assay type: functional, cell-based
[9] = target: T3, Orexin receptor type 2 (Homo sapiens); experiment: Allosteric agonist activity at human OX2 receptor expressed in CHOK1 cells assessed as potentiation of orexin-A induced calcium accumulation at 10 uM preincubated for 30 mins followed by orexin-A addition and measured for 150 secs by calcium-4 dye based FLIPR assay relative to control; assay type: functional, cell-based
[10] = target: T1, Orexin/Hypocretin receptor type 1 (Homo sapiens); experiment: Allosteric agonist activity at human OX1 receptor expressed in CHOK1 cells assessed as potentiation of orexin-A induced calcium accumulation preincubated for 30 mins followed by orexin-A addition and measured for 150 secs by calcium-4 dye based FLIPR assay; assay type: functional, cell-based
[11] = target: T3, Orexin receptor type 2 (Homo sapiens); experiment: Allosteric agonist activity at human OX2 receptor expressed in CHOK1 cells assessed as potentiation of orexin-A induced calcium accumulation preincubated for 30 mins followed by orexin-A addition and measured for 150 secs by calcium-4 dye based FLIPR assay; assay type: functional, cell-based
[12] = Solubility of the compound in water; assay type: physicochemical; conditions: buffer
CHO-K1 = experiment: Effect on ATP-induced intracellular calcium accumulation in CHOK1 cells expressing human OXR at 10 uM incubated for 30 mins and measured for 150 secs by calcium-4 dye based FLIPR assay; assay type: functional, cell-based; conditions: Cricetulus griseus

Row | fold change (FC) [7] | fold change (FC) [8] | fold change (FC) [9] | Activity [10] | Activity [11] | solubility [12] | SMILES | inhibition [1] | Ki [2] | inhibition [3] | Ki (Orexin receptor type 2) | Emax [4] | Emax [5] | Activity [6] | Activity (CHO-K1)
1 | – | – | – | – | – | – | COC(=O)c1cccc2c(C=O)cc(I)c-2c1 | 40.7% | 4.8 µM | 47.2% | 3.6 µM | 1.59% | 0.68% | Active | –
2 | 1.4 | 2.03 | 1.34 | Dose-dependent effect | Dose-dependent effect | Insoluble | COC(=O)Cc1ccc2ccc(C(=O)c3ccc(C(F)(F)F)cc3)c-2cc1 | – | – | 1% | – | 1.28% | 0.37% | – | inactive
